The text below walks through data of patent US9174979B2, “Phenanthroindolizidine compound and NFκB inhibitor containing same as active ingredient” (KABUSHIKI KAISHA YAKULT HONSHA, priority 2008, dated 2015).

Marks after values point to notes of the source that are not given here. Bounds are passed on as bounds.

In series [1] the test system is mice with TPA-induced ear edema. The series can be described thus: Anti-inflammatory effect in mice with TPA-induced ear edema. The class given is in vivo, mouse. The conditions noted are these: intraperitoneal, 30 minutes before TPA 5 μg/ear; ICR mice; four hours after TPA. The procedure: The anti-inflammatory effect of the phenanthroindolizidine alkaloid compound of the present invention in vivo was studied using mice with phorbol 12-myristate 13-acetate (TPA)-induced ear edema. Compound 11, a compound of the present invention, was intraperitoneally administered to male 6-week-old ICR mice, and after 30 minutes, TPA (Sigma-Aldrich Corporation) dissolved in acetone was applied to the front and back of the right ear of the mice (5 μg/ear). Four hours after application of TPA, the thickness of the auricle was measured by a dial thickness gauge (Ozaki Mfg Co. Ltd.). A control group was administered with a 5% glucose solution as a solvent.

Series [2] concerns SV40 promoter. The series can be described thus: SV40 promoter luciferase reporter assay in SW480/SV40-Luc cells. The following applies: Homo sapiens, SW480, read-out: SV40 promoter inhibitory activity IC50. In kind it is cell-based, human. The source says:
(§1) The action of the phenanthroindolizidine alkaloid compound of the present invention on the NFκB activity was studied in a luciferase assay. Human colon cancer SW480 cells were transfected with pNFκB-Luc Plasmid (Stratagene), which is a reporter vector in which a five-time tandem repeat of the NFκB responsive element (NRE) is integrated into the upstream of the luciferase gene, using Lipofectamine 2000 (Invitrogen Corporation) in accordance with the attached operating procedure. Subsequently, the cells were cultured in an RPMI1640 medium containing 10% FBS, 100 U/mL penicillin, 100 μg/mL streptomycin, and 0.5 mg/mL G418 to produce SW480 cells having the luciferase gene, the expression of which is regulated by NRE, stably introduced therein (SW480/NRE-Luc cells). Likewise, SW480 cells were transfected with pGL3-Control Vector (Promega Corporation), which is a reporter vector in which the SV40 promoter is integrated into the upstream of the luciferase gene, to produce SW480 cells having the luciferase gene, the expression of which is regulated by the SV40 promoter, stably introduced therein (SW480/SV40-Luc cells). The SW480/NRE-Luc cells or the SW480/SV40-Luc cells were suspended in an RPMI1640 medium containing 10% FBS, 100 U/mL penicillin, and 100 μg/mL streptomycin (10% FBS/RPMI1640), and then seeded in a 96-well microplate, followed by culturing under conditions of 5% CO2 and at 37° C. (5000 cells/well). After an overnight culture, the compound of the present invention was added, followed by culturing for one hour. Further, 50 ng/mL TNFα (Sigma-Aldrich Corporation) was added, followed by culturing for four hours. Subsequently, a Steady-Glo Luciferase Assay reagent (Promega Corporation) was added, and the luminescent intensity was detected by SpectraMax M5e (Molecular Devices, Inc.) to measure the intracellular luciferase activity. It is to be noted that the action of the compound of the present invention on the NFκB activity or the SV40 promoter activity was shown as IC50 values (the concentration of a test compound needed for 50% inhibition of the induction of the luciferase expression).
A general note: Reporter assays use an easily measured gene product as a stand-in for the process of interest.

For series [3], the system named is human colon cancer SW480 cells. In words: Inhibitory action on the proliferation of SW480 cells. In kind it is cell-based. The following applies: Homo sapiens, SW480; 48 hours culture, TetraColor ONE. The procedure:
(§2) The action of the phenanthroindolizidine alkaloid compound of the present invention on the proliferation of human colon cancer SW480 cells, HT-29 cells, and human non-small cell lung cancer A549 cells was studied. The SW480 cells were suspended in a 10% FBS/RPMI1640 and then seeded in a 96-well microplate, followed by culturing in 5% CO2 at 37° C. (2000 cells/well). The A549 cells and the HT-29 cells were each suspended in a DMEM medium containing 10% FBS, 100 U/mL penicillin, and 100 μg/mL streptomycin (10% FBS/DMEM) and a DMEM F-12 HAM medium containing 10% FBS, 100 U/mL penicillin, and 100 μg/mL streptomycin (10% FBS/DMEM F12 HAM), and then seeded in 96-well microplates, followed by culturing in 5% CO2 at 37° C. (1000 cells/well). After an overnight culture, the compound of the present invention was added, followed by further culturing for 48 hours (SW480 cells) and 96 hours (A549 cells and HT-29 cells). After culturing, the number of viable cells was counted using TetraColor ONE (Seikagaku Corporation) in accordance with the attached operating procedure. The results were expressed as the concentration of a test compound needed for 50% inhibition of the proliferation of the cells (IC50).

Series [4] deals with human non-small cell lung cancer A549 cells. The series can be described thus: Inhibitory action on the proliferation of A549 cells. The following applies: Homo sapiens, A549; 96 hours culture, TetraColor ONE. In kind it is cell-based. The procedure:
as §2

In series [5] the test system is mouse fibrosarcoma Meth A cells. The series can be described thus: Antitumor effect in mice transplanted with mouse fibrosarcoma Meth A cells. The following applies: intravenous on days 1, 5, 9, BALB/c mice, tumor weight on day 21. In kind it is in vivo. The procedure:
The antitumor effect of the phenanthroindolizidine alkaloid compound of the present invention in vivo was studied using mice transplanted with mouse fibrosarcoma Meth A cells. Meth A cells were transplanted subcutaneously in the inguinal region of male 7-week-old BALB/c mice (2.5×10^5 cells/mouse). Subsequently, on days 1, 5, and 9, the compound of the present invention was intravenously administered. To a control group, physiological saline as a solvent, was administered. On day 21 after the cell transplantation, tumor was excised and measured for its weight, and subsequently a tumor growth-inhibition rate IR (%) was obtained by the following formula. Tumor growth-inhibition rate IR(%)=(1−the weight of the tumor in an administration group/the weight of the tumor in a control group)×100

Series [6] is described as follows: Measurement of solubility. The conditions noted are these: saline or isotonic. The text has this: In in vivo studies, the phenanthroindolizidine alkaloid compounds were used in the form of a salt.
Series [7] deals with mice. In words: Animal toxicity test in mice transplanted with Meth A cells. In kind it is in vivo, mouse. The following applies: intravenous on days 1, 5, 9, observed for three weeks. The procedure:
Also, the toxicity of known phenanthroindolizidine alkaloid compounds in mice, namely (12aS,13S)-6,7-dimethoxy-9,10,11,12,12a,13-hexahydro-9a-aza-cyclopenta[b]triphenylene-3,13-diol (known compound 1; refer to WO01/023384) and (12aS,13S)-3,6,7-trimethoxy-9,10,11,12,12a,13-hexahydro-9a-aza-cyclopenta[b]triphenylene-13-ol (known compound 2; refer to Planta Med., 2002, 68: 186-188), was simultaneously studied. To a control group, a physiological saline solution as a solvent, was administered.

In series [8] the test system is human colon cancer HT-29 cells. In words: Inhibitory action on the proliferation of HT-29 cells. The class given is cell-based. The conditions noted are these: Homo sapiens, HT-29; 96 hours culture, TetraColor ONE. The procedure:
as §2

In series [9] the test system is NFκB. In words: NFκB luciferase reporter assay in SW480/NRE-Luc cells stimulated with TNFα. The class given is cell-based, human. The following applies: Homo sapiens, SW480, read-out: NFκB inhibitory activity IC50.
Source text: as §1

Series [10] relates to human colon cancer HCT116 cells. The series can be described thus: Antitumor effect in mice transplanted with human colon cancer HCT116 cells. In kind it is in vivo. The following applies: intraperitoneal on days 1 to 5 and 8 to 12, BALB/c nude mice, tumor weight on day 21. The text has this:
The antitumor effect of the phenanthroindolizidine alkaloid compound of the present invention in vivo was studied using mice transplanted with human colon cancer HCT116 cells. HCT116 cells were transplanted subcutaneously in the inguinal region of male 6-week-old BALB/c nude mice (2×10^6 cells/mouse). On days 1 to 5 and on days 8 to 12 after the time at which the estimated tumor volume obtained by 1/2ab^2 (a and b indicate the major axis and the minor axis of tumor, respectively) reached approximately 100 mm^3 (day 0), the compound of the present invention was administered (intraperitoneal administration). To a control group, a 5% glucose solution as a solvent, was administered. On day 21, tumor was excised and measured for its weight, and subsequently a tumor proliferation-inhibition rate IR (%) was calculated.

`COc1cc2c3c(c4ccc(O)cc4c2cc1OC)C[C@@H]1CCCN1C3.Cl` [Compound 11, (S)-6,7-dimethoxy-9,10,11,12,12a,13-hexahydro-9a-aza-cyclopenta[b]triphenylene-3-ol hydrochloride]: the “Anti-inflammatory effect (thickness of the auricle)” value in [1] is “inhibiting TPA-induced ear edema in a dose-dependent manner”. Also, the IC50 in series [2] is more than 10 ng/mL; in [3] it was 3.8 ng/mL; in series [4], 0.024 ng/mL; in [8], 0.62 ng/mL; in series [9] it was 1.2 ng/mL. The “Tumor growth inhibition rate IR” value is 52.1** % in series [5] (total dose 25 mg/kg) and 64.6** % in series [5] (total dose 50 mg/kg). The same compound displayed a solubility in [6] of 4000 µg/mL. Moreover, the Mortality rate in series [7] (total dose 25 mg/kg) and in series [7] (total dose 50 mg/kg) was 0/5 each time.

In the case of `COc1cc2c3c(c4ccc(O)cc4c2cc1OC)C[C@H]1CCCN1C3.Cl` [Compound 12, (R)-6,7-dimethoxy-9,10,11,12,12a,13-hexahydro-9a-aza-cyclopenta[b]triphenylene-3-ol hydrochloride], the IC50 in series [2] was more than 10000 ng/mL; in series [3] it was 50.4 ng/mL; in series [4] it was 12.7 ng/mL; in series [8], 50.4 ng/mL; in [9], 18.1 ng/mL. Also, the “Tumor growth inhibition rate IR” value in series [5] (total dose 25 mg/kg) was 25.3%; in series [5] (total dose 50 mg/kg) it was 58.8** %. The Mortality rate in series [7] (total dose 25 mg/kg) and in series [7] (total dose 50 mg/kg) was 0/5 throughout.

In the case of `Cl.Oc1ccc2c3c(c4cc5c(cc4c2c1)OCO5)CN1CCC[C@H]1C3` [Compound 13, (S)-6,7-methylenedioxy-9,10,11,12,12a,13-hexahydro-9a-aza-cyclopenta[b]triphenylene-3-ol hydrochloride], the IC50 in series [2] is more than 10000 ng/mL; in [3], 38.7 ng/mL; in series [4], 48.2 ng/mL; in series [8] it was 260 ng/mL; in series [9], 48.4 ng/mL. In addition, the “Tumor growth inhibition rate IR” value in series [5] (total dose 25 mg/kg) is 45.6* %; in [5] (total dose 50 mg/kg) it was 31.5%. For the same compound, the Mortality rate in series [7] (total dose 25 mg/kg) and in series [7] (total dose 50 mg/kg) was 0/5 throughout.

Turning to “(S)-6,7-dimethoxy-9,10,11,12,12a,13-hexahydro-9a-aza-cyclopenta[b]triphenylene-3-ol methanesulfonate [Compound 16]”, the “Tumor growth inhibition rate IR” value is 35.7*** % in series [10] (total dose 100 mg/kg) and 48.7*** % in [10] (total dose 200 mg/kg).

A word on the IC50: it is the point on the concentration scale where inhibition reaches its midpoint. Broadly, the solubility is the dissolved amount per volume that the medium holds. Lower therefore signals little dissolved substance.
